Laboratory results as given in patent US9890315B2, “Use of polylysine as a shale inhibitor” (BASF SE, priority 2011, dated 2018).

Columns and labels:
[1] = Performance test: Fann rheology and gel strength of bentonite suspension with shale inhibitor; conditions: 7.14 g/l Shale Inhibitor and 85.7 g/l Bentonite
Method: 350 ml of tap water are introduced into a beaker, 2.5 g of the shale inhibitor (calculated as dry mass—i.e. quaternized or non-quaternized polylysine or a prior art product) are added and the mixture is stirred for 20 min. The solution is transferred into an HB mixing cup. 30 g of Cebogel® NT (Bentonite, Cebo Holland B.V., The Netherlands) are added as a model substance for shale and the mixture is stirred at low speed for 10 min. Subsequently, the Fann rheology and the gel strength are determined.

[2] = OECD 306: Biodegradability in Seawater, Closed Bottle Method
Method: According to the method described in “OECD Guidelines for Testing of Chemicals—1992 OECD 306: Biodegradability in Seawater, Closed Bottle Method”, the biodegradability of the quaternized polylysine according to Example 3a, of Comp. sample 2 (Ultrahib®) and of a reference substance (sodium benzoate) was evaluated after 28 days and 60 days.

Row | Structure (SMILES) | Fann 35 values 3 ([1]; tap water) | Fann 35 values 6 ([1]; tap water) | Fann 35 values 100 ([1]; tap water) | Fann 35 values 200 ([1]; tap water) | Fann 35 values 300 ([1]; tap water) | Fann 35 values 600 ([1]; tap water) | Gel strength 10′ ([1]; tap water) | Gel strength 10″ ([1]; tap water) | PV ([1]; tap water) | YP ([1]; tap water) | pH ([1]; pH of the test mixture) | biodegradability Day 28 ([2]; after 28 days) | biodegradability Day 60 ([2]; after 60 days)
1 | C[N+](C)(C)CCO.[Cl-] [Comp. 3, Cholinchlorid] | 4 Pa | 4 Pa | 5 Pa | 6 Pa | 6 Pa | 8 Pa | 3 Pa | 3 Pa | 3 mPa*s | 5 Pa | 9.1 |  | 
2 | O=C([O-])c1ccccc1.[Na+] [Reference, sodium benzoate] |  |  |  |  |  |  |  |  |  |  |  | 80% | 70%
